Measured values from patent US11472798B2 (Mission Therapeutics Limited, priority 2014, dated 2022).

Each compound was assayed against T1, UCHL1 (Homo sapiens, UniProt P09936) (assay: UCHL1 biochemical IC50 assay (fluorescence polarisation)). Conditions: 30 min enzyme/compound pre-incubation at room temp, read after 2 hr incubation, read-out: Activity range (UCHL1 biochemical IC50 assay).
T1 construct: made in house; host or cells: HEK293T
T1 sequence (P09936 1-223): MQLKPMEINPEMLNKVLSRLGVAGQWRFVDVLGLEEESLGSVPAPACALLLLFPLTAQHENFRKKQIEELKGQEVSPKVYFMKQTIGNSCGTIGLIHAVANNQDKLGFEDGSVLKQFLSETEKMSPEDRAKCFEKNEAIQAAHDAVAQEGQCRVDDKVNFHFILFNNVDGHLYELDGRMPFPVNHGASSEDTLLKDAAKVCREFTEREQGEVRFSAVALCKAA
How it was run: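 Fluorescence polarisation (ex 540/em 590 nm) of 50 nM TAMRA-labelled ubiquitin–peptide isopeptide substrate was read at time zero and after 2 h at room temperature. Compounds (100–0.03 μM final, in duplicate) were given 30 min preincubation with N-FLAG UCHL1 from HEK293T cells in pH 7.5 Tris buffer.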
`Cc1cnc(NC(=O)[C@@H]2CN(C#N)C[C@H]2C)s1` [Example 83, (3S,4S)-1-cyano-4-methyl-N-(5-methylthiazol-2-yl)pyrrolidine-3-carboxamide] gave an IC50 of 1000 to 10000 nM.
For `N#CN1CC[C@H](C(=O)Nc2ncc(N3CCNC(=O)CC3)s2)C1` [Example 101, (S)-1-cyano-N-(5-(5-oxo-1,4-diazepan-1-yl)thiazol-2-yl)pyrrolidine-3-carboxamide], the IC50 was less than 1000 nM.
`N#CN1CC[C@H](C(=O)Nc2cn(C3CCCCC3)cn2)C1` [Example 162, (S)-1-cyano-N-(1-cyclohexyl-1H-imidazol-4-yl)pyrrolidine-3-carboxamide] was tested, and the IC50 was less than 1000 nM.
In the case of `N#CN1CC[C@H](C(=O)Nc2cc(-c3ccnc4nccn34)ccn2)C1` [Example 252, (S)-1-cyano-N-(4-(imidazo[1,2-a]pyrimidin-5-yl)pyridin-2-yl)pyrrolidine-3-carboxamide], the IC50 is reported as 1000 to 10000 nM.
Compound `N#CN1CC[C@H](C(=O)Nc2ncc(N3Cc4ccccc4C3)s2)C1` [Example 97, (S)-1-cyano-N-(5-(isoindolin-2-yl)thiazol-2-yl)pyrrolidine-3-carboxamide] has an IC50 of less than 1000 nM.
`N#CN1CC[C@H](C(=O)Nc2cc(-c3cn4ccnc4cn3)ccn2)C1` [Example 254, (S)-1-cyano-N-(4-(imidazo[1,2-a]pyrazin-6-yl)pyridin-2-yl)pyrrolidine-3-carboxamide] showed an IC50 of less than 1000 nM.
For `N#CN1CC[C@H](C(=O)Nc2ncc(C3CCOCC3)s2)C1` [Example 59, (S)-1-cyano-N-(5-(tetrahydro-2H-pyran-4-yl)thiazol-2-yl)pyrrolidine-3-carboxamide], the IC50 was less than 1000 nM.
For `CC(C)Cn1cnc(NC(=O)[C@H]2CCN(C#N)C2)c1` [Example 148, (S)-1-cyano-N-(1-isobutyl-1H-imidazol-4-yl)pyrrolidine-3-carboxamide], the IC50 was 1000 to 10000 nM.
With `N#CN1CCC(C(=O)Nc2ccc(-c3ccccn3)cn2)C1` (stereo not shown) [Example 32, N-([2,3′-bipyridin]-6′-yl)-1-cyano-pyrrolidine-3-carboxamide] the IC50 was 1000 to 10000 nM.
`N#CN1CCC(C(=O)Nc2ncc(-c3ccccc3F)s2)C1` (stereo not shown) [Example 3, 1-cyano-N-(5-(2-fluorophenyl)thiazol-2-yl)pyrrolidine-3-carboxamide] showed an IC50 of 1000 to 10000 nM.
Compound `N#Cc1ccc(O[C@H]2CCOC2)cc1-n1cnc(NC(=O)[C@H]2CCN(C#N)C2)c1` [Example 248, (S)-1-cyano-N-(1-(2-cyano-5-(((S)-tetrahydrofuran-3-yl)oxy)phenyl)-1H-imidazol-4-yl)pyrrolidine-3-carboxamide] has an IC50 of 1000 to 10000 nM.
`N#CN1C[C@@H](C(=O)Nc2ncc(-c3ccccc3)s2)[C@H](c2cncnc2)C1` (relative stereo) [Example 283, trans-1-cyano-N-(5-phenylthiazol-2-yl)-4-(pyrimidin-5-yl)pyrrolidine-3-carboxamide] gave an IC50 of 1000 to 10000 nM.
Work on `N#CN1CCC(C(=O)Nc2nc3ccc(Br)cc3s2)C1` (stereo not shown) [Example 22, N-(6-bromobenzo[d]thiazol-2-yl)-1-cyano-pyrrolidine-3-carboxamide] yielded an IC50 of 1000 to 10000 nM.
Compound `CC(C)(C)c1cnc(NC(=O)C2CCN(C#N)C2)s1` (stereo not shown) [Example 8, N-(5-(tert-butyl)thiazol-2-yl)-1-cyano-pyrrolidine-3-carboxamide] has an IC50 of 1000 to 10000 nM.
For `Cc1cc(-n2cnc(NC(=O)[C@H]3CCN(C#N)C3)c2)ccc1C#N` [Example 308, (S)-1-cyano-N--(1-(4-cyano-3-methylphenyl)-1H-imidazol-4-yl)pyrrolidine-3-carboxamide], the IC50 was less than 1000 nM.
Compound `N#CN1CC[C@H](C(=O)Nc2ncc(-c3ccc(S(N)(=O)=O)cc3)s2)C1` [Example 221, (S)-1-cyano-N-(5-(4-sulfamoylphenyl)thiazol-2-yl)pyrrolidine-3-carboxamide] has an IC50 of less than 1000 nM.
`COc1ccc2nc(NC(=O)C3CCN(C#N)C3)sc2c1` (stereo not shown) [Example 21, 1-cyano-N-(6-methoxybenzo[d]thiazol-2-yl)pyrrolidine-3-carboxamide] gave an IC50 of 1000 to 10000 nM.
`Cn1ccc(C(=O)N2CCc3nc(NC(=O)[C@H]4CCN(C#N)C4)sc3C2)n1` [Example 194, (S)-1-cyano-N-(5-(1-methyl-1H-pyrazole-3-carbonyl)-4,5,6,7-tetrahydrothiazolo[5,4-c]pyridin-2-yl)pyrrolidine-3-carboxamide] gave an IC50 of less than 1000 nM.
In the case of `N#CN1CC[C@H](C(=O)Nc2cn(C3CCCN(C(=O)c4ccccc4)C3)cn2)C1` (stereo partly drawn) [Example 184, (3S)—N-(1-(1-benzoylpiperidin-3-yl)-1H-imidazol-4-yl)-1-cyanopyrrolidine-3-carboxamide], the IC50 is reported as less than 1000 nM.
`N#CN1CCC(C(=O)Nc2nc3ccccc3s2)C1` (stereo not shown) [Example 18, N-(benzo[d]thiazol-2-yl)-1-cyano-pyrrolidine-3-carboxamide] gave an IC50 of 1000 to 10000 nM.
`CC(C)C(=O)N1CCc2nc(NC(=O)[C@H]3CCN(C#N)C3)sc2C1` [Example 190, (S)-1-cyano-N-(5-isobutyryl-4,5,6,7-tetrahydrothiazolo[5,4-c]pyridin-2-yl)pyrrolidine-3-carboxamide] showed an IC50 of less than 1000 nM.
With `CNC(=O)c1ccccc1-n1cnc(NC(=O)[C@H]2CCN(C#N)C2)c1` [Example 157, (S)-1-cyano-N-(1-(2-(methylcarbamoyl)phenyl)-1H-imidazol-4-yl)pyrrolidine-3-carboxamide] the IC50 was 1000 to 10000 nM.
`N#Cc1ccc(OC2COC2)cc1-n1cnc(NC(=O)[C@H]2CCN(C#N)C2)c1` [Example 250, (S)-1-cyano-N-(1-(2-cyano-5-(oxetan-3-yloxy)phenyl)-1H-imidazol-4-yl)pyrrolidine-3-carboxamide] showed an IC50 of less than 1000 nM.
In the case of `N#CN1CC[C@H](C(=O)Nc2cc(-c3cnc4nccn4c3)ccn2)C1` [Example 255, (S)-1-cyano-N-(4-(imidazo[1,2-a]pyrimidin-6-yl)pyridin-2-yl)pyrrolidine-3-carboxamide], the IC50 is reported as less than 1000 nM.
`N#CN1CC[C@H](C(=O)Nc2nc3c(s2)CN(C(=O)c2ccccn2)CC3)C1` [Example 193, (S)-1-cyano-N-(5-picolinoyl-4,5,6,7-tetrahydrothiazolo[5,4-c]pyridin-2-yl)pyrrolidine-3-carboxamide] gave an IC50 of less than 1000 nM.
`N#CN1CCC(C(=O)Nc2ncc(-c3cccc(Cl)c3)s2)C1` (stereo not shown) [Example 5, N-(5-(3-chlorophenyl)thiazol-2-yl)-1-cyano-pyrrolidine-3-carboxamide] gave an IC50 of 1000 to 10000 nM.
Compound `Cc1cccc(C)c1-c1ccc2nc(NC(=O)[C@H]3CCN(C#N)C3)sc2c1` [Example 287, (S)-1-cyano-N-(6-(2,6-dimethylphenyl)benzo[d]thiazol-2-yl)pyrrolidine-3-carboxamide] has an IC50 of less than 1000 nM.
Compound `CN1CCC(n2cnc(NC(=O)[C@H]3CCN(C#N)C3)c2)C1` (stereo partly drawn) [Example 188, (3S)-1-cyano-N-(1-(1-methylpyrrolidin-3-yl)-1H-imidazol-4-yl)pyrrolidine-3-carboxamide] has an IC50 of 1000 to 10000 nM.
In the case of `N#CN1CC[C@H](C(=O)Nc2cnc(N3CCCC3)cn2)C1` [Example 108, (S)-1-cyano-N-(5-(pyrrolidin-1-yl)pyrazin-2-yl)pyrrolidine-3-carboxamide], the IC50 is reported as 1000 to 10000 nM.
For `COCCOC(=O)N1CCc2nc(NC(=O)[C@H]3CCN(C#N)C3)sc2C1` [Example 199, 2-methoxyethyl (S)-2-(1-cyanopyrrolidine-3-carboxamido)-6,7-dihydrothiazolo[5,4-c]pyridine-5(4H)-carboxylate], the IC50 was 1000 to 10000 nM.
Compound `Cc1noc(C)c1CCn1cnc(NC(=O)[C@H]2CCN(C#N)C2)c1` [Example 179, (S)-1-cyano-N-(1-(2-(3,5-dimethylisoxazol-4-yl)ethyl)-1H-imidazol-4-yl)pyrrolidine-3-carboxamide] has an IC50 of less than 1000 nM.
`Cc1noc(C)c1-c1ccc2nc(NC(=O)[C@H]3CCN(C#N)C3)cn2c1C` [Example 137, (S)-1-cyano-N-(6-(3,5-dimethylisoxazol-4-yl)-5-methylimidazo[1,2-a]pyridin-2-yl)pyrrolidine-3-carboxamide] showed an IC50 of less than 1000 nM.
`N#CN1CC[C@H](C(=O)Nc2nc3ccc(-n4ccnn4)cc3s2)C1` [Example 62, (S)-N-(6-(1H-1,2,3-triazol-1-yl)benzo[d]thiazol-2-yl)-1-cyano-pyrrolidine-3-carboxamide] showed an IC50 of less than 1000 nM.
For `N#CN1CC[C@H](C(=O)Nc2ncc(-c3ccc(F)c(F)c3)s2)C1` [Example 67, (S)-1-cyano-N-(5-(3,4-difluorophenyl)thiazol-2-yl)pyrrolidine-3-carboxamide], the IC50 was less than 1000 nM.
For `N#CN1CCC(C(=O)Nc2ncc(-c3ccccc3N)s2)C1` (stereo not shown) [Example 109, N-(5-(2-aminophenyl)thiazol-2-yl)-1-cyanopyrrolidine-3-carboxamide], the IC50 was 1000 to 10000 nM.
In the case of `CCNC(=O)c1cccc(-c2cnc(NC(=O)[C@H]3CCN(C#N)C3)s2)c1` [Example 234, (S)-1-cyano-N-(5-(3-(ethylcarbamoyl)phenyl)thiazol-2-yl)pyrrolidine-3-carboxamide], the IC50 is reported as less than 1000 nM.
`N#CN1CC[C@H](C(=O)Nc2cn(C3CCCN(Cc4ccccc4)C3)cn2)C1` (stereo partly drawn) [Example 186, (3S)—N-(1-(1-benzylpiperidin-3-yl)-1H-imidazol-4-yl)-1-cyanopyrrolidine-3-carboxamide] gave an IC50 of less than 1000 nM.
Work on `N#CN1CC[C@H](C(=O)Nc2cn(-c3cccc4[nH]ncc34)cn2)C1` [Example 303, (S)-N-(1-(1H-indazol-4-yl)-1H-imidazol-4-yl)-1-cyanopyrrolidine-3-carboxamide] yielded an IC50 of less than 1000 nM.
With `N#CN1CCC(C(=O)Nc2ncc(-c3cccc(F)c3)s2)C1` (stereo not shown) [Example 2, 1-cyano-N-(5-(3-fluorophenyl)thiazol-2-yl)pyrrolidine-3-carboxamide] the IC50 was less than 1000 nM.
For `Cc1noc(C)c1Cn1cnc(NC(=O)[C@H]2CCN(C#N)C2)c1` [Example 171, (S)-1-cyano-N-(1-((3,5-dimethylisoxazol-4-yl)methyl)-1H-imidazol-4-yl)pyrrolidine-3-carboxamide], the IC50 was 1000 to 10000 nM.
